Reference: patent US20230416256A1, “SMALL MOLECULE INHIBITORS OF NF-kB INDUCING KINASE” (Janssen Pharmaceutica NV, priority 2020, published 2023)
Where two headings read alike, the source gives them in different places.

How the values were obtained:
[1] = target: recombinant human NF-kappaB-inducing kinase (NIK/MAP3K14) (Homo sapiens, UniProt Q99558); experiment: Inhibition of auto-phosphorylation of recombinant human NIK/MAP3K14 activity (AlphaScreen); format: biochemical; conditions: GST-tagged NIK/MAP3K14 1 nM, 5 μM ATP, 2 h at 25° C.; average of values obtained
Procedure, shortened: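 GST-tagged NIK (1 nM) auto-phosphorylated for 2 h at 25 °C with 5 μM ATP in 50 mM Tris pH 7.5, 5 mM MgCl2, 0.7% DMSO. Phospho-Ser176/180 was detected by AlphaScreen using an anti-phospho-IKK antibody. IC50 came from sigmoidal fits of % inhibition versus high (full activity) and low (no ATP) controls.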

[2] = tested on: p-IKKα levels in L363 (NIK translocated multiple myeloma) cells; experiment: Effect of compounds on p-IKKα levels in L363 cells (AlphaLISA SureFire Ultra); format: cell-based, human; conditions: 10 μM MG132, 6 h, average of values obtained, read-out: Assay 2 IC50
Procedure, shortened: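 L363 cells were BAFF-stimulated overnight (250 ng/ml) in DMEM/0.5% BSA, then exposed to an 11-point 1:3 compound series (0.3% DMSO) with BAFF and 10 μM MG132 for 6 h at 37 °C. p-IKKα (Ser176/180) was measured by AlphaLISA SureFire Ultra. IC50 was fitted from % inhibition normalized to stimulated and unstimulated controls.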

[3] = Homo sapiens, L-363, 6 h, 250 ng/ml BAFF stimulated
[4] = Homo sapiens, L-363, 250 ng/ml BAFF stimulated

recombinant human NF-kappaB-inducing kinase (NIK/MAP3K14), sequence (Q99558 whole entry): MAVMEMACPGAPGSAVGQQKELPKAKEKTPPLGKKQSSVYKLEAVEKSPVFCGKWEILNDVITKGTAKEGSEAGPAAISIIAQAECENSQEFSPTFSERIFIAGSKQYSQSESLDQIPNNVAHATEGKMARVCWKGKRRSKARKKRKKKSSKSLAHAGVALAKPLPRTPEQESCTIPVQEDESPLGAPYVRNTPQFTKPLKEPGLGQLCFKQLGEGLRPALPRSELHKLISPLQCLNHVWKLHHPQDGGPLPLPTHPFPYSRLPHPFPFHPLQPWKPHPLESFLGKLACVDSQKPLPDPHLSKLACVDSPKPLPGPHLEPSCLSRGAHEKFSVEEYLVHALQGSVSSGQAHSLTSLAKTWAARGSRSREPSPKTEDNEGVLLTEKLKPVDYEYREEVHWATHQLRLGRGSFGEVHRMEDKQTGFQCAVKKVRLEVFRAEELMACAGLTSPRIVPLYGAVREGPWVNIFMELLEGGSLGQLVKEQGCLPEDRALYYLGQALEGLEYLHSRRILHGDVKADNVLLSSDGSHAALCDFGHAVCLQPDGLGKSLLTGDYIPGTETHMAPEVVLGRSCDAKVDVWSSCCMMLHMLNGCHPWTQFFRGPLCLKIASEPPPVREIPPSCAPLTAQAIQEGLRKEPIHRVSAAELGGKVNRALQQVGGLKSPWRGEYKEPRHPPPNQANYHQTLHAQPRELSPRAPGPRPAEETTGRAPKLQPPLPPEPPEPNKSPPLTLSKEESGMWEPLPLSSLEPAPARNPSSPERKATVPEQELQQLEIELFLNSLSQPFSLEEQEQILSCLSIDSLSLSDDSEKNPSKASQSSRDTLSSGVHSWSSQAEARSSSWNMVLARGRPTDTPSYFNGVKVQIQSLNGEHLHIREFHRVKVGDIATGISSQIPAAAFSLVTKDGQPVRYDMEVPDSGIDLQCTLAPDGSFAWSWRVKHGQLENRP

| SMILES | IC50 [1] | IC50 [2, 3] | IC50 [2, 4] | IC50 ([2]; 250 ng/ml BAFF stimulated) |
| --- | --- | --- | --- | --- |
| O[C@@]1(c2cccc(-c3coc(-c4c[nH]c5ncccc45)c3)c2)CCn2ccnc21 [Example 30, (R)-7-(3-(5-(1H-Pyrrolo[2,3-b]pyridin-3-yl)furan-3-yl)phenyl)-6,7-dihydro-5H-pyrrolo[1,2-a]imidazol-7-ol] | ≤ 0.1 µM | > 0.5 µM | – | – |
| O[C@]1(c2cccc(-c3csc(-c4c[nH]c5ncccc45)n3)c2)CCc2cccnc21 (single isomer, unassigned) [Example 1] | > 0.5 µM | > 0.5 µM | – | – |
| CN1CC[C@@](O)(c2cccc(-c3csc(-c4c[nH]c5ncc(C(=O)O)cc45)n3)c2)C1=O [Example 51, (R)-3-(4-(3-(3-Hydroxy-1-methyl-2-oxopyrrolidin-3-yl)phenyl)thiazol-2-yl)-1H-pyrrolo[2,3-b]pyridine-5-carboxylic acid] | ≤ 0.1 µM | – | > 0.5 µM | – |
| O[C@]1(c2cccc(-c3csc(-c4c[nH]c5ncccc45)n3)c2)CCc2scnc21 (single isomer, unassigned) [Example 31] | 0.1 to 0.5 µM | > 0.5 µM | – | – |
| CN1CC[C@@](O)(c2cccc(-n3ccc(-c4c[nH]c5ncccc45)n3)c2)C1=O (single isomer, unassigned) [Example 122] | ≤ 0.1 µM | – | > 0.5 µM | – |
| O[C@@]1(c2cccc(-c3nc(-c4c[nH]c5nccnc45)cs3)c2)CCn2ccnc21 [Example 11, (R)-7-(3-(4-(5H-Pyrrolo[2,3-b]pyrazin-7-yl)thiazol-2-yl)phenyl)-6,7-dihydro-5H-pyrrolo[1,2-a]imidazol-7-ol] | ≤ 0.1 µM | ≤ 0.1 µM | – | – |
| Cc1noc2c1CC[C@@]2(O)c1cccc(-c2csc(-c3c[nH]c4ncccc34)n2)c1 (single isomer, unassigned) [Example 126] | ≤ 0.1 µM | > 0.5 µM | – | – |
| C[C@@]1(O)C[C@](O)(c2cccc(-c3csc(-c4c[nH]c5ncccc45)n3)c2)c2ncccc21 (single isomer, unassigned) [Example 107] | > 0.5 µM | > 0.5 µM | – | – |
| O[C@@]1(c2cccc(-c3csc(-c4c[nH]c5ncc(F)c(F)c45)n3)c2)CCn2ccnc21 [Example 96, (R)-7-(3-(2-(4,5-Difluoro-1H-pyrrolo[2,3-b]pyridin-3-yl)thiazol-4-yl)phenyl)-6,7-dihydro-5H-pyrrolo[1,2-a]imidazol-7-ol] | ≤ 0.1 µM | > 0.5 µM | – | – |
| O[C@@H]1C[C@@](O)(c2cccc(-c3csc(-c4c[nH]c5ncccc45)n3)c2)c2ncccc21 (single isomer, unassigned) [Example 101] | 0.1 to 0.5 µM | > 0.5 µM | – | – |
| O[C@]1(c2cccc(-c3nc(-c4c[nH]c5nccnc45)cs3)c2)CCn2ccnc21 [Example 12, (S)-7-(3-(4-(5H-Pyrrolo[2,3-b]pyrazin-7-yl)thiazol-2-yl)phenyl)-6,7-dihydro-5H-pyrrolo[1,2-a]imidazol-7-ol] | 0.1 to 0.5 µM | > 0.5 µM | – | – |
| O[C@@]1(c2cccc(-c3csc(-c4c[nH]c5nccnc45)n3)c2)C=Cn2ccnc21 [Example 13, (R)-7-(3-(2-(5H-Pyrrolo[2,3-b]pyrazin-7-yl)thiazol-4-yl)phenyl)-7H-pyrrolo[1,2-a]imidazol-7-ol] | ≤ 0.1 µM | > 0.5 µM | – | – |
| O=C1N(CC(F)(F)F)CC[C@]1(O)c1cccc(-c2csc(-c3c[nH]c4nccnc34)n2)c1 [Example 43, (S)-3-(3-(2-(5H-Pyrrolo[2,3-b]pyrazin-7-yl)thiazol-4-yl)phenyl)-3-hydroxy-1-(2,2,2-trifluoroethyl)pyrrolidin-2-one] | > 0.5 µM | – | > 0.5 µM | – |
| CN1CC[C@](O)(c2cccc(-c3csc(-c4c[nH]c5ncccc45)n3)c2)C1=O (single isomer, unassigned) [Example 48] | > 0.5 µM | – | > 0.5 µM | – |
| CN1C(=O)[C@](O)(c2cccc(-c3csc(-c4c[nH]c5ncccc45)n3)c2)c2ncccc21 [Example 92, (S)-3-(3-(2-(1H-Pyrrolo[2,3-b]pyridin-3-yl)thiazol-4-yl)phenyl)-3-hydroxy-1-methyl-1,3-dihydro-2H-pyrrolo[3,2-b]pyridin-2-one] | ≤ 0.1 µM | – | > 0.5 µM | – |
| O[C@@]1(c2cccc(-c3csc(-c4c[nH]c5ncc(F)cc45)n3)c2)CCn2ccnc21 [Example 24, (R)-7-(3-(2-(5-Fluoro-1H-pyrrolo[2,3-b]pyridin-3-yl)thiazol-4-yl)phenyl)-6,7-dihydro-5H-pyrrolo[1,2-a]imidazol-7-ol] | ≤ 0.1 µM | ≤ 0.1 µM | – | – |
| C[C@@](O)(c1cccc(-c2csc(-c3c[nH]c4ncccc34)n2)c1)c1ncc[nH]1 (single isomer, unassigned) [Example 80] | > 0.5 µM | > 0.5 µM | – | – |
| O[C@@]1(c2cccc(-c3csc(-c4c[nH]c5nccnc45)n3)c2)COc2cccnc21 [Example 17, (R)-3-(3-(2-(5H-Pyrrolo[2,3-b]pyrazin-7-yl)thiazol-4-yl)phenyl)-2,3-dihydrofuro[3,2-b]pyridin-3-ol] | ≤ 0.1 µM | – | – | ≤ 0.1 µM |
| Cc1ccc([C@]2(O)CCN(C)C2=O)cc1-c1csc(-c2c[nH]c3nccnc23)n1 [Example 67, (R)-3-(3-(2-(5H-Pyrrolo[2,3-b]pyrazin-7-yl)thiazol-4-yl)-4-methylphenyl)-3-hydroxy-1-methylpyrrolidin-2-one] | ≤ 0.1 µM | – | > 0.5 µM | – |
| O[C@@]1(c2cccc(-c3csc(-c4n[nH]c5nccnc45)n3)c2)CCn2ccnc21 [Example 76, (R)-7-(3-(2-(1H-Pyrazolo[3,4-b]pyrazin-3-yl)thiazol-4-yl)phenyl)-6,7-dihydro-5H-pyrrolo[1,2-a]imidazol-7-ol] | 0.1 to 0.5 µM | > 0.5 µM | – | – |
| O[C@@]1(c2cccc(-c3csc(-c4c[nH]c5ncccc45)n3)c2)C=Cc2cccnc21 (single isomer, unassigned) [Example 33] | ≤ 0.1 µM | > 0.5 µM | – | – |
| Cc1cnc2[nH]cc(-c3nc(-c4cccc([C@]5(O)CCN(C)C5=O)c4)cs3)c2c1 [Example 7, (R)-3-Hydroxy-1-methyl-3-(3-(2-(5-methyl-1H-pyrrolo[2,3-b]pyridin-3-yl)thiazol-4-yl)phenyl)pyrrolidin-2-one] | ≤ 0.1 µM | – | 0.1 to 0.5 µM | – |
| C[C@@](O)(c1cccc(-c2csc(-c3c[nH]c4nccnc34)n2)c1)c1ncc[nH]1 (single isomer, unassigned) [Example 77] | > 0.5 µM | > 0.5 µM | – | – |
